Measured values taken from article PMC7926726, “The Wound Healing Peptide, AES16-2M, Ameliorates Atopic Dermatitis In Vivo” (Molecules, 2021).
Ends that are not written are not given here.

Test: Water solubility of the peptide
Type: physicochemical
Conditions: in water; analysed by Anygen; previously described [16] and updated in this study
Protocol: To investigate whether the wound healing peptide, AES16-2M, could improve AD, Dermatophagoides farina (Df) body-induced AD model was established, and 10 mg/kg of AES16-2M was used as the optimal dose determined by preliminary experiments. […] Since increased IgE and TSLP production is closely related to AD pathology, the total IgE levels from sera were determined.
AES16-2M was synthesized and analyzed for purity, water solubility, and molecular weight by Anygen (Gwang Ju, Korea). Peptide with purity over 95% was used for this study.

## REGRT [AES16-2M]
  water solubility: over 10.0 mg/mL
